# Reference: US20210154202A1, “SYNTHESIS OF DENTIMOL, AN ANTIGLAUCOMA DRUG” (Virginia Commonwealth University, priority 2018, published 2021)
# Experiments:
# [1] = test system: rats (cornea, ciliary body, retina); test: In vivo safety assessment, ocular tolerance and histology after once-daily dosing for seven days
# Protocol: In vivo safety assessment. To assess in vivo ocular tolerance, rats received OTM, timolol, or DenTimol (2×5 μL, 0.5% w/v OTM equivalent) in the right eye once daily for seven days. At the conclusion of the experiment, the rats were euthanized. The eyes were enucleated and immediately fixed in Davidson's solution, and 5 μm sections prepared for histological evaluation.
# [2] = Water solubility / hydrophobicity as stated; format: physicochemical
# [3] = test system: NIH 3T3 fibroblasts; test: Cytotoxicity study, WST-1 cell proliferation assay; format: cell-based; details: no concentration stated
# Protocol: Cytotoxicity study. NIH 3T3 fibroblasts were seeded in a 96-well plate at 5000 cells per well and allowed 24 h to attach. The cells were maintained in DMEM medium supplemented with 10% serum, streptomycin […] and penicillin (100 U/mL) at 37° C. in 95% air/5% CO2. Upon the removal of the medium, the cells were incubated with fresh DMEM medium (control) or fresh medium containing various amounts of OTM, OTM-PEG, or DenTimol (n=8) for 24 h. Cell viability relative to untreated cells was determined using the WST-1 cell proliferation assay.
# [4] = Ex vivo corneal permeation study, Franz diffusion cells; format: in vitro ADME; details: rabbit cornea, 37° C., 3.7 mM OTM equivalent donor
# Protocol: Ex vivo corneal permeation study. Corneal permeability was determined using Franz diffusion cells (PermeGear, Hellertown, Pa.). Corneas were extracted from fresh rabbit eyes and placed immediately into diffusion cells with the endothelial surface facing the acceptor chamber and the epithelial surface facing the donor chamber. The acceptor chamber was filled with 5 mL of glutathione buffered Ringer's solution, and the donor chamber with 100 μL of a solution containing 1 mg of DenTimol (3.7 mM OTM equivalent). For comparison, permeation of OTM and OTM-PEG across the cornea were also tested at the same OTM equivalent concentration. The diffusion cells were placed in a water bath at 37° C. At various time points, 250 μL samples were withdrawn from the acceptor chamber, and drug concentrations were measured using the reverse phase HPLC system.
# [5] = delivered as a topical solution; cited from earlier work
Structure (SMILES),"Histology (H&E) of cornea, ciliary body and retina after repeated dosing [1]",Water solubility / hydrophobicity [2],Toxicity of OTM (stated) [3],Drug permeated through the cornea in 4 h [4] [%],Period after a dose within therapeutic concentration window in the anterior chamber [5] [h],Share of total drug reaching the target organ with each dose [5]
"C1CN(c2nsnc2OC[C@@H]2CO2)CCO1 [OTM, (S)-4-[4-(Oxiranylmethoxy)-1,2,5-thiadiazol-3-yl]morpholine]","did not alter the structures of the cornea, ciliary body, and retina",highly hydrophobic,non-toxic,–,–,–
CC(C)(C)NC[C@H](O)COc1nsnc1N1CCOCC1 [timolol],–,–,–,3.5,4 to 5,about 5%
